Reference: the NIST ThermoML archive (doi:10.1021/je5009679)

Details: Liquid; for viscosity: Concentric cylinders viscometry

CCOP(=O)([O-])OCC.CCn1cc[n+](C)c1 [1-ethyl-3-methylimidazolium diethyl phosphate]
101.33 kPa
Details | viscosity [mPa·s]
293.15 K | 664.7
303.15 K | 317.3
313.15 K | 173.9
323.15 K | 103.8
333.15 K | 66.37
343.15 K | 44.92
353.15 K | 31.86
363.15 K | 23.5
373.15 K | 17.92

Details | mass density [kg/m3]
293.15 K, 101.33 kPa, Vibrating tube method | 1148.2
303.15 K, 101.33 kPa, Vibrating tube method | 1141.2
311.4 K, 10000 kPa, Bellows volumetry | 1140.5
311.4 K, 20000 kPa, Bellows volumetry | 1145.4
311.4 K, 30000 kPa, Bellows volumetry | 1150.1
311.4 K, 40000 kPa, Bellows volumetry | 1154.6
311.4 K, 50000 kPa, Bellows volumetry | 1158.9
311.4 K, 60000 kPa, Bellows volumetry | 1163
311.4 K, 70000 kPa, Bellows volumetry | 1167
311.4 K, 80000 kPa, Bellows volumetry | 1170.9
311.4 K, 90000 kPa, Bellows volumetry | 1174.6
311.4 K, 100000 kPa, Bellows volumetry | 1178.3
311.4 K, 110000 kPa, Bellows volumetry | 1181.8
311.4 K, 120000 kPa, Bellows volumetry | 1185.2
311.4 K, 130000 kPa, Bellows volumetry | 1188.6
311.4 K, 140000 kPa, Bellows volumetry | 1191.8
311.4 K, 150000 kPa, Bellows volumetry | 1195.2
311.4 K, 160000 kPa, Bellows volumetry | 1198.2
311.4 K, 170000 kPa, Bellows volumetry | 1201.4
311.4 K, 180000 kPa, Bellows volumetry | 1204.4
311.4 K, 190000 kPa, Bellows volumetry | 1207.3
311.4 K, 200000 kPa, Bellows volumetry | 1210.3
313.15 K, 101.33 kPa, Vibrating tube method | 1134.4
323.15 K, 101.33 kPa, Vibrating tube method | 1127.8
331.3 K, 10000 kPa, Bellows volumetry | 1127.5
331.3 K, 20000 kPa, Bellows volumetry | 1132.6
331.3 K, 30000 kPa, Bellows volumetry | 1137.6
331.3 K, 40000 kPa, Bellows volumetry | 1142.3
331.3 K, 50000 kPa, Bellows volumetry | 1146.8
331.3 K, 60000 kPa, Bellows volumetry | 1151.2
331.3 K, 70000 kPa, Bellows volumetry | 1155.3
331.3 K, 80000 kPa, Bellows volumetry | 1159.4
331.3 K, 90000 kPa, Bellows volumetry | 1163.2
331.3 K, 100000 kPa, Bellows volumetry | 1167.1
331.3 K, 110000 kPa, Bellows volumetry | 1170.7
331.3 K, 120000 kPa, Bellows volumetry | 1174.4
331.3 K, 130000 kPa, Bellows volumetry | 1177.8
331.3 K, 140000 kPa, Bellows volumetry | 1181.3
331.3 K, 150000 kPa, Bellows volumetry | 1184.8
331.3 K, 160000 kPa, Bellows volumetry | 1187.9
331.3 K, 170000 kPa, Bellows volumetry | 1191
331.3 K, 180000 kPa, Bellows volumetry | 1194.1
331.3 K, 190000 kPa, Bellows volumetry | 1197.3
331.3 K, 200000 kPa, Bellows volumetry | 1200.2
333.15 K, 101.33 kPa, Vibrating tube method | 1121.2
343.15 K, 101.33 kPa, Vibrating tube method | 1114.6
351.4 K, 10000 kPa, Bellows volumetry | 1114.6
351.4 K, 20000 kPa, Bellows volumetry | 1120
351.4 K, 30000 kPa, Bellows volumetry | 1125.2
351.4 K, 40000 kPa, Bellows volumetry | 1130.2
351.4 K, 50000 kPa, Bellows volumetry | 1134.9
351.4 K, 60000 kPa, Bellows volumetry | 1139.5
351.4 K, 70000 kPa, Bellows volumetry | 1144
351.4 K, 80000 kPa, Bellows volumetry | 1148.1
351.4 K, 90000 kPa, Bellows volumetry | 1152.2
351.4 K, 100000 kPa, Bellows volumetry | 1156.1
351.4 K, 110000 kPa, Bellows volumetry | 1159.9
351.4 K, 120000 kPa, Bellows volumetry | 1163.6
351.4 K, 130000 kPa, Bellows volumetry | 1167.2
351.4 K, 140000 kPa, Bellows volumetry | 1170.7
351.4 K, 150000 kPa, Bellows volumetry | 1174.2
351.4 K, 160000 kPa, Bellows volumetry | 1177.5
351.4 K, 170000 kPa, Bellows volumetry | 1180.8
351.4 K, 180000 kPa, Bellows volumetry | 1184
351.4 K, 190000 kPa, Bellows volumetry | 1187.1
351.4 K, 200000 kPa, Bellows volumetry | 1190.3
353.15 K, 101.33 kPa, Vibrating tube method | 1108
363.15 K, 101.33 kPa, Vibrating tube method | 1101.5
371.6 K, 10000 kPa, Bellows volumetry | 1102
371.6 K, 20000 kPa, Bellows volumetry | 1107.7
371.6 K, 30000 kPa, Bellows volumetry | 1113.3
371.6 K, 40000 kPa, Bellows volumetry | 1118.5
371.6 K, 50000 kPa, Bellows volumetry | 1123.4
371.6 K, 60000 kPa, Bellows volumetry | 1128.2
371.6 K, 70000 kPa, Bellows volumetry | 1132.7
371.6 K, 80000 kPa, Bellows volumetry | 1137.2
371.6 K, 90000 kPa, Bellows volumetry | 1141.3
371.6 K, 100000 kPa, Bellows volumetry | 1145.5
371.6 K, 110000 kPa, Bellows volumetry | 1149.4
371.6 K, 120000 kPa, Bellows volumetry | 1153.2
371.6 K, 130000 kPa, Bellows volumetry | 1157
371.6 K, 140000 kPa, Bellows volumetry | 1160.6
371.6 K, 150000 kPa, Bellows volumetry | 1164.2
371.6 K, 160000 kPa, Bellows volumetry | 1167.7
371.6 K, 170000 kPa, Bellows volumetry | 1171
371.6 K, 180000 kPa, Bellows volumetry | 1174.3
371.6 K, 190000 kPa, Bellows volumetry | 1177.5
371.6 K, 200000 kPa, Bellows volumetry | 1180.8
373.15 K, 101.33 kPa, Vibrating tube method | 1094.9
391.6 K, 10000 kPa, Bellows volumetry | 1089.8
391.6 K, 20000 kPa, Bellows volumetry | 1095.6
391.6 K, 30000 kPa, Bellows volumetry | 1101.5
391.6 K, 40000 kPa, Bellows volumetry | 1107
391.6 K, 50000 kPa, Bellows volumetry | 1112.3
391.6 K, 60000 kPa, Bellows volumetry | 1117.2
391.6 K, 70000 kPa, Bellows volumetry | 1122
391.6 K, 80000 kPa, Bellows volumetry | 1126.6
391.6 K, 90000 kPa, Bellows volumetry | 1131
391.6 K, 100000 kPa, Bellows volumetry | 1135.2
391.6 K, 110000 kPa, Bellows volumetry | 1139.4
391.6 K, 120000 kPa, Bellows volumetry | 1143.4
391.6 K, 130000 kPa, Bellows volumetry | 1147.1
391.6 K, 140000 kPa, Bellows volumetry | 1151
391.6 K, 150000 kPa, Bellows volumetry | 1154.6
391.6 K, 160000 kPa, Bellows volumetry | 1158.1
391.6 K, 170000 kPa, Bellows volumetry | 1161.5
391.6 K, 180000 kPa, Bellows volumetry | 1165
391.6 K, 190000 kPa, Bellows volumetry | 1168.2
391.6 K, 200000 kPa, Bellows volumetry | 1171.5
411.7 K, 10000 kPa, Bellows volumetry | 1077.9
411.7 K, 20000 kPa, Bellows volumetry | 1084.3
411.7 K, 30000 kPa, Bellows volumetry | 1090.4
411.7 K, 40000 kPa, Bellows volumetry | 1096.2
411.7 K, 50000 kPa, Bellows volumetry | 1101.7
411.7 K, 60000 kPa, Bellows volumetry | 1106.9
411.7 K, 70000 kPa, Bellows volumetry | 1111.9
411.7 K, 80000 kPa, Bellows volumetry | 1116.7
411.7 K, 90000 kPa, Bellows volumetry | 1120.6
411.7 K, 100000 kPa, Bellows volumetry | 1125.1
411.7 K, 110000 kPa, Bellows volumetry | 1129.3
411.7 K, 120000 kPa, Bellows volumetry | 1133.4
411.7 K, 130000 kPa, Bellows volumetry | 1137.4
411.7 K, 140000 kPa, Bellows volumetry | 1141.2
411.7 K, 150000 kPa, Bellows volumetry | 1145
411.7 K, 160000 kPa, Bellows volumetry | 1148.7
411.7 K, 170000 kPa, Bellows volumetry | 1152.3
411.7 K, 180000 kPa, Bellows volumetry | 1155.8
411.7 K, 190000 kPa, Bellows volumetry | 1159.2
411.7 K, 200000 kPa, Bellows volumetry | 1162.6
